Experimental data published in PubChem BioAssay AID248 (DTP/NCI, 2004).
“And” between values parts separate entries of the source, which are not always exact repeats. Equal values may be shown once. Inconclusive results and toxic doses are left out. Cut-off read from the data, not from the text of the source: active = T/C of 150% or more; inactive = T/C below 125%.

Tested on: L1210 leukemia ip in BDF1 mice, survival T/C
Test: NCI In Vivo Anticancer Drug Screen. Data for tumor model L1210 Leukemia (intraperitoneal) in B6D2F1 (BDF1) mice
Settings: endpoint: mean survival time, higher = longer survival
In short: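 Ratio derived from survival: compound-dosed mice over vehicle-dosed mice, all bearing a transplantable tumor.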

[1] = dose: 100.0 mg/kg/injection, schedule: Q01DX001 (ip), vehicle: saline
[2] = dose: 200.0 mg/kg/injection, schedule: Q01DX001 (ip), vehicle: saline
[3] = dose: 100.0 mg/kg/injection, schedule: Q01DX009 (ip), vehicle: Klucel (hydroxypropylcellulose) (HPC)
[4] = dose: 200.0 mg/kg/injection, schedule: Q01DX009 (ip), vehicle: Klucel (hydroxypropylcellulose) (HPC)
[5] = dose: 400.0 mg/kg/injection, schedule: Q01DX009 (ip), vehicle: Klucel (hydroxypropylcellulose) (HPC)
[6] = dose: 100.0 mg/kg/injection, schedule: Q04DX002 (ip), vehicle: saline with Tween-80
[7] = dose: 200.0 mg/kg/injection, schedule: Q04DX002 (ip), vehicle: saline with Tween-80
[8] = dose: 100.0 mg/kg/injection, schedule: Q04DX003 (ip), vehicle: Klucel (hydroxypropylcellulose) (HPC)
[9] = dose: 200.0 mg/kg/injection, schedule: Q04DX003 (ip), vehicle: Klucel (hydroxypropylcellulose) (HPC)
[10] = dose: 400.0 mg/kg/injection, schedule: Q04DX003 (ip), vehicle: Klucel (hydroxypropylcellulose) (HPC)
[11] = dose: 400.0 mg/kg/injection, schedule: Q01DX001 (ip), vehicle: saline

Measured: T/C

Nc1nc(SCCO)nc2nc[nH]c12
inactive: dose: 100.0 mg/kg/injection, schedule: Q04DX003 (ip), vehicle: saline with Tween-80 96 % of control | dose: 200.0 mg/kg/injection, schedule: Q04DX003 (ip), vehicle: saline with Tween-80 95 % of control | dose: 400.0 mg/kg/injection, schedule: Q04DX003 (ip), vehicle: saline with Tween-80 90 % of control

O=C1C=CC(=Nc2ccccc2Cl)O1
inactive: dose: 100.0 mg/kg/injection, schedule: Q01DX009 (ip), vehicle: saline with Tween-80 95 % of control | dose: 200.0 mg/kg/injection, schedule: Q01DX009 (ip), vehicle: saline with Tween-80 93 % of control | dose: 400.0 mg/kg/injection, schedule: Q01DX009 (ip), vehicle: saline with Tween-80 94 % of control

CCCCCCCCCCCCNC(=O)Nc1ccc(Cl)c(Cl)c1
inactive: [1] 92 % of control | [2] 93 % of control

CCCCCCN(CCCCCC)CC(=O)Nc1ccc(S(=O)(=O)c2ccc(NC(=O)CN(CCCCCC)CCCCCC)cc2)cc1
inactive: dose: 25.0 mg/kg/injection, schedule: Q01DX001 (ip), vehicle: carboxymethylcellulose (CMC) 114 % of control | dose: 50.0 mg/kg/injection, schedule: Q01DX001 (ip), vehicle: carboxymethylcellulose (CMC) 97 % of control

OCCN(Cc1cccnc1)Cc1ccccn1
inactive: dose: 9.38 mg/kg/injection, schedule: Q01DX001 (ip), vehicle: saline 94 % of control | dose: 18.75 mg/kg/injection, schedule: Q01DX001 (ip), vehicle: saline 100 % of control

OCc1ccccc1NCc1ccccc1
inactive: [3] 103 % of control | dose: 100.0 mg/kg/injection, schedule: Q04DX003 (ip), vehicle: other 105 % of control | [4] 91 % of control | dose: 200.0 mg/kg/injection, schedule: Q04DX003 (ip), vehicle: other 100 % of control | [5] 99 % of control | dose: 400.0 mg/kg/injection, schedule: Q04DX003 (ip), vehicle: other 97 % of control

S=C(Nc1ccc(Cl)cc1)NC1CC2C=CC1C2 (configuration not stated)
inactive: [6] 101 % of control | [7] 93 % of control

Cc1ccc(C(=O)/C=C\c2ccc(Cl)cc2Cl)cc1
inactive: [8] 92 % of control | [9] 100 % of control | [10] 92 % of control

CCCCCCCC(=O)N1CCCC(C)C1 (configuration not stated)
inactive: dose: 100.0 mg/kg/injection, schedule: Q04DX002 (ip), vehicle: saline 96 % of control | dose: 200.0 mg/kg/injection, schedule: Q04DX002 (ip), vehicle: saline 114 % of control | dose: 400.0 mg/kg/injection, schedule: Q04DX002 (ip), vehicle: saline 114 % of control

C/C(N=Nc1ccc([N+](=O)[O-])cc1)=N\Nc1ccccc1
inactive: dose: 50.0 mg/kg/injection, schedule: Q01DX009 (ip), vehicle: Klucel (hydroxypropylcellulose) (HPC) 102 % of control | [3] 107 % of control | [4] 112 % of control | [5] 97 % of control

O=C(O)CCCCCNC(=O)OCc1ccccc1
inactive: dose: 100.0 mg/kg/injection, schedule: Q01DX009 (ip), vehicle: gum acacia 102 % of control | dose: 100.0 mg/kg/injection, schedule: Q04DX003 (ip), vehicle: gum acacia 91 % of control | dose: 200.0 mg/kg/injection, schedule: Q01DX009 (ip), vehicle: gum acacia 103 % of control | dose: 200.0 mg/kg/injection, schedule: Q04DX003 (ip), vehicle: gum acacia 93 % of control | dose: 400.0 mg/kg/injection, schedule: Q01DX009 (ip), vehicle: gum acacia 86 % of control | dose: 400.0 mg/kg/injection, schedule: Q04DX003 (ip), vehicle: gum acacia 91 % of control

c1ccc2nc3nc4ccccc4nc3nc2c1
inactive: dose: 5.0 mg/kg/injection, schedule: Q04DX002 (ip), vehicle: gum acacia 90 % of control | dose: 10.0 mg/kg/injection, schedule: Q04DX002 (ip), vehicle: gum acacia 93 % of control | dose: 20.0 mg/kg/injection, schedule: Q04DX002 (ip), vehicle: gum acacia 93 % of control and 94 % of control | dose: 75.0 mg/kg/injection, schedule: Q01DX001 (ip), vehicle: other 102 % of control | [6] 106 % of control | dose: 150.0 mg/kg/injection, schedule: Q01DX001 (ip), vehicle: other 98 % of control | [7] 100 % of control | dose: 300.0 mg/kg/injection, schedule: Q01DX001 (ip), vehicle: other 103 % of control | dose: 400.0 mg/kg/injection, schedule: Q04DX002 (ip), vehicle: saline with Tween-80 91 % of control

O=C(OCC1COc2ccccc2O1)C(F)(F)F (configuration not stated)
inactive: dose: 100.0 mg/kg/injection, schedule: Q01DX001 (ip), vehicle: carboxymethylcellulose (CMC) 95 % of control | dose: 200.0 mg/kg/injection, schedule: Q01DX001 (ip), vehicle: carboxymethylcellulose (CMC) 93 % of control | dose: 400.0 mg/kg/injection, schedule: Q01DX001 (ip), vehicle: carboxymethylcellulose (CMC) 98 % of control

COCC1OC(OC)C(NC(C)=O)C(OC)C1OC (configuration not stated)
inactive: [1] 101 % of control | [2] 101 % of control | [11] 96 % of control

O=C(c1ccccc1)c1ccc(O)c2ncccc12
inactive: dose: 100.0 mg/kg/injection, schedule: Q04DX002 (ip), vehicle: Klucel (hydroxypropylcellulose) (HPC) 102 % of control | dose: 200.0 mg/kg/injection, schedule: Q04DX002 (ip), vehicle: Klucel (hydroxypropylcellulose) (HPC) 102 % of control | dose: 400.0 mg/kg/injection, schedule: Q04DX002 (ip), vehicle: Klucel (hydroxypropylcellulose) (HPC) 98 % of control

CC(=O)NCCCCC(N)C(=O)O (configuration not stated)
inactive: dose: 50.0 mg/kg/injection, schedule: Q01DX001 (ip), vehicle: saline 104 % of control | [1] 93 % of control | [2] 93 % of control | [11] 95 % of control

O=[N+]([O-])c1ccc(/C=C/C=C\c2ccc(S(=O)(=O)F)cc2Cl)cc1
inactive: [8] 96 % of control | [9] 92 % of control | [10] 96 % of control

Cc1cc(Cl)ccc1OCC(=O)OCCC1=CCC2CC1C2(C)C (configuration not stated)
inactive: dose: 100.0 mg/kg/injection, schedule: Q01DX009 (ip), vehicle: saline 94 % of control | dose: 200.0 mg/kg/injection, schedule: Q01DX009 (ip), vehicle: saline 100 % of control | dose: 400.0 mg/kg/injection, schedule: Q01DX009 (ip), vehicle: saline 102 % of control

CCCCCCCNC(C)(C)C(SS)c1ccc(Cl)cc1 (configuration not stated)
inactive: dose: 100.0 mg/kg/injection, schedule: Q01DX009 (sc), vehicle: olive oil, sesame oil, peanut oil 102 % of control | dose: 200.0 mg/kg/injection, schedule: Q01DX009 (sc), vehicle: olive oil, sesame oil, peanut oil 100 % of control | dose: 400.0 mg/kg/injection, schedule: Q01DX009 (sc), vehicle: olive oil, sesame oil, peanut oil 101 % of control
